Experiments:
Type in all cases: cell-based
[1] = system: Wnt activity (Sp5-Luc reporter, SW480 colon carcinoma cells); test: Wnt activity screening assay: Sp5-Luc reporter gene in SW480 colon carcinoma cells; conditions: Homo sapiens, overnight incubation, 10-point curve from 10 μM
Method in brief: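 SW480 cells stably transduced with an Sp5 promoter (eight TCF/LEF sites)–firefly luciferase lentiviral reporter, plated at 4,000 cells/well in 1% FBS medium with compounds (10-point 1:3 series from 10 μM, 0.1% DMSO) overnight at 37 °C. BrightGlo luminescence normalised to DMSO; EC50 by four-parameter fit, else % inhibition at 10 μM.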

SW480 colon cancer cells = test: Cell viability assay (CellTiter-Blue), SW480 colon cancer cells; conditions: Homo sapiens, 96 h, four days; for EC50: CellTiter-Blue
Method in brief: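 SW480 cells (~2×10^3/well) exposed four days at 37 °C to 8-point 1:3 dilutions, 10 μM down to 0.0045 μM. Viability from resazurin reduction (CellTiter-Blue, ~3 h, Ex 560/Em 590); EC50 by non-linear regression, or percent inhibition at 10 μM where EC50 exceeds 10 μM.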

[2] = system: primary human fibroblasts derived from IPF patients (LL29 cells) treated with TGF-β1; test: Inhibition of the fibrotic process: αSMA staining in TGF-β1 treated primary human fibroblasts from IPF patients (LL29 cells); conditions: Fibroblast, 96 h, TGF-β1 20 ng/mL, 4 days, % αSMA positive cells
Method in brief: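 EC50 values come from non-linear fits of the αSMA-positive percentage among SYTOX-excluded live cells, normalized to TGF-β1 plus DMSO controls, or appear as % inhibition at 10 μM when above 10 μM. Fibrosis was induced in IPF-derived LL29 fibroblasts by 20 ng/mL TGF-β1 over 4 days, with 1:2 compound dilutions from 10 μM.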

EC50 [1] | EC50 (SW480 colon cancer cells) | Compound | inhibition at 10 µM (SW480 colon cancer cells; given where EC50 >10 μM, 10 μM, read-out: percent inhibition at 10 μM) | EC50 [2]
3240 nM | > 10000 nM | FC1(F)CCN(Cc2cncc(-c3ccc4[nH]nc(-c5cc6c(-c7cccs7)cccc6[nH]5)c4n3)c2)C1 [Compound 362, 5-(5-((3,3-Difluoropyrrolidin-1-yl)methyl)pyridin-3-yl)-3-(4-(thiophen-2-yl)-1H-indol-2-yl)-1H-pyrazolo[4,3-b]pyridine] | 15.3% | 1290 nM
1390 nM | 1180 nM | CN(C)CCNc1cc(F)cc(-c2cccc3[nH]c(-c4n[nH]c5ccc(-c6cncc(CN7CCCCC7)c6)nc45)cc23)c1 [Compound 463, N^1-(3-Fluoro-5-(2-(5-(5-(piperidin-1-ylmethyl)pyridin-3-yl)-1H-pyrazolo [4,3-b]pyridin-3-yl)-1H-indol-4-yl)phenyl)-N^2,N^2-dimethylethane-1,2-diamine] | – | 772 nM
239 nM | 290 nM | CN(C)CCNc1cc(F)cc(-c2cccc3[nH]c(-c4n[nH]c5ccc(-c6cccnc6)nc45)cc23)c1 [Compound 452, N^1-(3-Fluoro-5-(2-(5-(pyridin-3-yl)-1H-pyrazolo[4,3-b]pyridin-3-yl)-1H-indol-4-yl)phenyl)-N^2,N^2-dimethylethane-1,2-diamine] | – | 38 nM
415 nM | 801 nM | CN(C)Cc1cncc(-c2ccc3[nH]nc(-c4cc5c(-c6cccnc6)cccc5[nH]4)c3n2)c1 [Compound 97, N,N-Dimethyl-1-(5-(3-(4-(pyridin-3-yl)-1H-indol-2-yl)-1H-pyrazolo[4,3-b]pyridin-5-yl)pyridin-3-yl)methanamine] | – | 451 nM
